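Results reflect a 48-hour exposure of cells in 96-well plates to compound at five concentrations. GI50 marks 50% less growth. The concentration for full growth arrest is given as TGI.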
How the values were obtained:
Assay in all cases: NCI tumour cell line growth inhibition, 48 h
OVCAR-8 ovarian = test system: OVCAR-8 ovarian
M14 melanoma = test system: M14 melanoma
HL-60(TB) leukemia = test system: HL-60(TB) leukemia
NCI-H522 lung = test system: NCI-H522 lung
U251 CNS = test system: U251 CNS
SK-MEL-28 melanoma = test system: SK-MEL-28 melanoma
UO-31 renal = test system: UO-31 renal
DLD-1 colon = test system: DLD-1 colon
UACC-62 melanoma = test system: UACC-62 melanoma
CCRF-CEM leukemia = test system: CCRF-CEM leukemia
HCT-116 colon = test system: HCT-116 colon
DMS 114 small cell lung = test system: DMS 114 small cell lung
SNB-19 CNS = test system: SNB-19 CNS
RXF 393 renal = test system: RXF 393 renal
IGROV1 ovarian = test system: IGROV1 ovarian
HT29 colon = test system: HT29 colon
NCI-H23 lung = test system: NCI-H23 lung
786-0 renal = test system: 786-0 renal
NCI-H460 lung = test system: NCI-H460 lung
SNB-78 CNS = test system: SNB-78 CNS
LOX IMVI melanoma = test system: LOX IMVI melanoma
NCI-H226 lung = test system: NCI-H226 lung
DMS 273 small cell lung = test system: DMS 273 small cell lung
M19-MEL melanoma = test system: M19-MEL melanoma
A498 renal = test system: A498 renal
SF-268 CNS = test system: SF-268 CNS
OVCAR-4 ovarian = test system: OVCAR-4 ovarian
MOLT-4 leukemia = test system: MOLT-4 leukemia
TK-10 renal = test system: TK-10 renal
ACHN renal = test system: ACHN renal
SK-OV-3 ovarian = test system: SK-OV-3 ovarian
SF-295 CNS = test system: SF-295 CNS
UACC-257 melanoma = test system: UACC-257 melanoma
SF-539 CNS = test system: SF-539 CNS
HCT-15 colon = test system: HCT-15 colon
A549 NSCLC = test system: A549 NSCLC
KM12 colon = test system: KM12 colon
K-562 leukemia = test system: K-562 leukemia
SK-MEL-2 melanoma = test system: SK-MEL-2 melanoma
HOP-18 NSCLC = test system: HOP-18 NSCLC
SN12C renal = test system: SN12C renal
HCC-2998 colon = test system: HCC-2998 colon
MALME-3M melanoma = test system: MALME-3M melanoma
OVCAR-3 ovarian = test system: OVCAR-3 ovarian
SNB-75 CNS = test system: SNB-75 CNS
LXFL 529 NSCLC = test system: LXFL 529 NSCLC
SK-MEL-5 melanoma = test system: SK-MEL-5 melanoma

**Q.** Which GI50 (OVCAR-8 ovarian) does the source give for `CC(=O)[O-].O=[N+]([O-])c1ccc([O-])c(C=NCCN=Cc2cc([N+](=O)[O-])ccc2[O-])c1.[Mn+3]` here?
**A.** The GI50 was greater than 100 µM.

**Q.** And the TGI (OVCAR-8 ovarian)?
**A.** Its TGI is greater than 100 µM.

**Q.** And the GI50 (M14 melanoma)?
**A.** The GI50 was greater than 100 µM.

**Q.** And the TGI (M14 melanoma)?
**A.** Its TGI is greater than 100 µM.

**Q.** And the GI50 (HL-60(TB) leukemia)?
**A.** The GI50 was greater than 100 µM.

**Q.** And the TGI (HL-60(TB) leukemia)?
**A.** Its TGI is greater than 100 µM.

**Q.** What about the GI50 (NCI-H522 lung) of the same molecule?
**A.** Its GI50 is 31.4 µM.

**Q.** What about the TGI (NCI-H522 lung) of the same molecule?
**A.** The TGI was 93.3 µM.

**Q.** What about the GI50 (U251 CNS) of the same molecule?
**A.** The GI50 was greater than 100 µM.

**Q.** And the TGI (U251 CNS)?
**A.** Its TGI is greater than 100 µM.

**Q.** And the GI50 (SK-MEL-28 melanoma)?
**A.** The GI50 was greater than 100 µM.

**Q.** And the TGI (SK-MEL-28 melanoma)?
**A.** The TGI was greater than 100 µM.

**Q.** What about the GI50 (UO-31 renal) of the same molecule?
**A.** The GI50 was greater than 100 µM.

**Q.** What about the TGI (UO-31 renal) of the same molecule?
**A.** Its TGI is greater than 100 µM.

**Q.** What about the GI50 (DLD-1 colon) of the same molecule?
**A.** The GI50 was greater than 100 µM.

**Q.** What about the TGI (DLD-1 colon) of the same molecule?
**A.** Its TGI is greater than 100 µM.

**Q.** What about the GI50 (UACC-62 melanoma) of the same molecule?
**A.** Its GI50 is greater than 100 µM.

**Q.** And the TGI (UACC-62 melanoma)?
**A.** The TGI was greater than 100 µM.

**Q.** And the GI50 (CCRF-CEM leukemia)?
**A.** The GI50 was 33.4 µM.

**Q.** What about the TGI (CCRF-CEM leukemia) of the same molecule?
**A.** Its TGI is greater than 100 µM.

**Q.** What about the GI50 (HCT-116 colon) of the same molecule?
**A.** Its GI50 is greater than 100 µM.

**Q.** And the TGI (HCT-116 colon)?
**A.** Its TGI is greater than 100 µM.

**Q.** What about the GI50 (DMS 114 small cell lung) of the same molecule?
**A.** The GI50 was 98 µM.

**Q.** What about the TGI (DMS 114 small cell lung) of the same molecule?
**A.** Its TGI is greater than 100 µM.

**Q.** And the GI50 (SNB-19 CNS)?
**A.** Its GI50 is greater than 100 µM.

**Q.** And the TGI (SNB-19 CNS)?
**A.** The TGI was greater than 100 µM.

**Q.** And the GI50 (RXF 393 renal)?
**A.** Its GI50 is greater than 100 µM.

**Q.** What about the TGI (RXF 393 renal) of the same molecule?
**A.** Its TGI is greater than 100 µM.

**Q.** And the GI50 (IGROV1 ovarian)?
**A.** Its GI50 is 2.73 µM.

**Q.** What about the TGI (IGROV1 ovarian) of the same molecule?
**A.** Its TGI is 19.9 µM.

**Q.** What about the GI50 (HT29 colon) of the same molecule?
**A.** The GI50 was greater than 100 µM.

**Q.** What about the TGI (HT29 colon) of the same molecule?
**A.** Its TGI is greater than 100 µM.

**Q.** And the GI50 (NCI-H23 lung)?
**A.** The GI50 was greater than 100 µM.

**Q.** What about the TGI (NCI-H23 lung) of the same molecule?
**A.** The TGI was greater than 100 µM.

**Q.** And the GI50 (786-0 renal)?
**A.** The GI50 was greater than 100 µM.

**Q.** What about the TGI (786-0 renal) of the same molecule?
**A.** The TGI was greater than 100 µM.

**Q.** And the GI50 (NCI-H460 lung)?
**A.** Its GI50 is greater than 100 µM.

**Q.** And the TGI (NCI-H460 lung)?
**A.** Its TGI is greater than 100 µM.

**Q.** What about the GI50 (SNB-78 CNS) of the same molecule?
**A.** The GI50 was greater than 100 µM.

**Q.** And the TGI (SNB-78 CNS)?
**A.** The TGI was greater than 100 µM.

**Q.** And the GI50 (LOX IMVI melanoma)?
**A.** Its GI50 is 75.8 µM.

**Q.** What about the TGI (LOX IMVI melanoma) of the same molecule?
**A.** Its TGI is greater than 100 µM.

**Q.** And the GI50 (NCI-H226 lung)?
**A.** The GI50 was 89.1 µM.

**Q.** And the TGI (NCI-H226 lung)?
**A.** The TGI was greater than 100 µM.

**Q.** What about the GI50 (DMS 273 small cell lung) of the same molecule?
**A.** Its GI50 is greater than 100 µM.

**Q.** What about the TGI (DMS 273 small cell lung) of the same molecule?
**A.** Its TGI is greater than 100 µM.

**Q.** And the GI50 (M19-MEL melanoma)?
**A.** The GI50 was greater than 100 µM.

**Q.** And the TGI (M19-MEL melanoma)?
**A.** The TGI was greater than 100 µM.

**Q.** What about the GI50 (A498 renal) of the same molecule?
**A.** Its GI50 is greater than 100 µM.

**Q.** What about the TGI (A498 renal) of the same molecule?
**A.** Its TGI is greater than 100 µM.

**Q.** And the GI50 (SF-268 CNS)?
**A.** Its GI50 is greater than 100 µM.

**Q.** What about the TGI (SF-268 CNS) of the same molecule?
**A.** The TGI was greater than 100 µM.

**Q.** What about the GI50 (OVCAR-4 ovarian) of the same molecule?
**A.** The GI50 was greater than 100 µM.

**Q.** And the TGI (OVCAR-4 ovarian)?
**A.** Its TGI is greater than 100 µM.

**Q.** What about the GI50 (MOLT-4 leukemia) of the same molecule?
**A.** Its GI50 is greater than 100 µM.

**Q.** What about the TGI (MOLT-4 leukemia) of the same molecule?
**A.** The TGI was greater than 100 µM.

**Q.** And the GI50 (TK-10 renal)?
**A.** Its GI50 is greater than 100 µM.

**Q.** What about the TGI (TK-10 renal) of the same molecule?
**A.** Its TGI is greater than 100 µM.

**Q.** What about the GI50 (ACHN renal) of the same molecule?
**A.** Its GI50 is greater than 100 µM.

**Q.** What about the TGI (ACHN renal) of the same molecule?
**A.** Its TGI is greater than 100 µM.

**Q.** What about the GI50 (SK-OV-3 ovarian) of the same molecule?
**A.** The GI50 was greater than 100 µM.

**Q.** What about the TGI (SK-OV-3 ovarian) of the same molecule?
**A.** Its TGI is greater than 100 µM.

**Q.** What about the GI50 (SF-295 CNS) of the same molecule?
**A.** The GI50 was greater than 100 µM.

**Q.** And the TGI (SF-295 CNS)?
**A.** Its TGI is greater than 100 µM.

**Q.** And the GI50 (UACC-257 melanoma)?
**A.** The GI50 was greater than 100 µM.

**Q.** And the TGI (UACC-257 melanoma)?
**A.** Its TGI is greater than 100 µM.

**Q.** And the GI50 (SF-539 CNS)?
**A.** Its GI50 is greater than 100 µM.

**Q.** What about the TGI (SF-539 CNS) of the same molecule?
**A.** The TGI was greater than 100 µM.

**Q.** And the GI50 (HCT-15 colon)?
**A.** Its GI50 is greater than 100 µM.

**Q.** And the TGI (HCT-15 colon)?
**A.** The TGI was greater than 100 µM.

**Q.** What about the GI50 (A549 NSCLC) of the same molecule?
**A.** Its GI50 is greater than 100 µM.

**Q.** What about the TGI (A549 NSCLC) of the same molecule?
**A.** The TGI was greater than 100 µM.

**Q.** What about the GI50 (KM12 colon) of the same molecule?
**A.** The GI50 was greater than 100 µM.

**Q.** What about the TGI (KM12 colon) of the same molecule?
**A.** The TGI was greater than 100 µM.

**Q.** And the GI50 (K-562 leukemia)?
**A.** Its GI50 is greater than 100 µM.

**Q.** What about the TGI (K-562 leukemia) of the same molecule?
**A.** Its TGI is greater than 100 µM.

**Q.** And the GI50 (SK-MEL-2 melanoma)?
**A.** Its GI50 is greater than 100 µM.

**Q.** And the TGI (SK-MEL-2 melanoma)?
**A.** The TGI was greater than 100 µM.

**Q.** What about the GI50 (HOP-18 NSCLC) of the same molecule?
**A.** The GI50 was greater than 100 µM.

**Q.** What about the TGI (HOP-18 NSCLC) of the same molecule?
**A.** The TGI was greater than 100 µM.

**Q.** And the GI50 (SN12C renal)?
**A.** The GI50 was greater than 100 µM.

**Q.** And the TGI (SN12C renal)?
**A.** Its TGI is greater than 100 µM.

**Q.** And the GI50 (HCC-2998 colon)?
**A.** The GI50 was 74.5 µM.

**Q.** What about the TGI (HCC-2998 colon) of the same molecule?
**A.** Its TGI is greater than 100 µM.

**Q.** What about the GI50 (MALME-3M melanoma) of the same molecule?
**A.** The GI50 was greater than 100 µM.

**Q.** And the TGI (MALME-3M melanoma)?
**A.** Its TGI is greater than 100 µM.

**Q.** And the GI50 (OVCAR-3 ovarian)?
**A.** Its GI50 is 63 µM.

**Q.** And the TGI (OVCAR-3 ovarian)?
**A.** The TGI was greater than 100 µM.

**Q.** What about the GI50 (SNB-75 CNS) of the same molecule?
**A.** The GI50 was greater than 100 µM.

**Q.** And the TGI (SNB-75 CNS)?
**A.** The TGI was greater than 100 µM.

**Q.** And the GI50 (LXFL 529 NSCLC)?
**A.** Its GI50 is greater than 100 µM.

**Q.** And the TGI (LXFL 529 NSCLC)?
**A.** The TGI was greater than 100 µM.

**Q.** And the GI50 (SK-MEL-5 melanoma)?
**A.** The GI50 was greater than 100 µM.

**Q.** What about the TGI (SK-MEL-5 melanoma) of the same molecule?
**A.** The TGI was greater than 100 µM.
